The text below walks through data of patent EP4772649A1, “SCREENING METHOD FOR ODOR-SUPPRESSING MATERIAL” (Takasago International Corporation, priority 2023, dated 2025).

One assay has as its system OR2M3. The following applies: Patent Literature 2; cited from earlier work.
Assay [1] deals with olfactory receptor OR2AG2. Kind of assay: Antagonist screening: suppression of OR2AG2 response by luciferase reporter gene assay (Normalized Response). Format: cell-based, human. The procedure: The human olfactory receptor OR2AG2 gene expression vector was cloned, and HEK293T cells expressing the olfactory receptor OR2AG2 gene were used to perform an antagonist screening in which the effect of test substances on suppressing OR2AG2 response is measured by a luciferase reporter gene assay. In the luciferase reporter gene assay, each of approximately 500 test substances was individually mixed with each "dust odor" compound sample, and the Fold Increase value obtained in each test with the test substance mixed was calculated as the Normalized Response, assuming that the Fold Increase value obtained in the test without mixing any test substance was 1. The concentrations of the "dust odor" compounds used as samples were set as follows: a) 3-ethyl-2-pentylpyridine, 300 µM; b) 2-methoxy-3-isopropylpyrazine, 500 µM; c) 2-isobutyl-3-methoxypyrazine, 500 µM; and d) 2-sec-butyl-3-methoxypyrazine, 500 µM. […] As examples of antagonists thereby identified for each of the "dust odor" compounds a) to d), a) 2,4-decadienal, b) trans-2-nonenal, c) 2,4-undecadienal, and d) 2,4-decadienal were measured for their concentration-dependent effects in suppressing OR2AG2 response to each sample substance using a luciferase reporter gene assay. The concentrations of the samples were set as follows: a) 3-ethyl-2-pentylpyridine, 300 µM; b) 2-methoxy-3-isopropylpyrazine, 500 µM; c) 2-isobutyl-3-methoxypyrazine, 500 µM; and d) 2-sec-butyl-3-methoxypyrazine, 500 µM. The concentrations of the antagonists for each sample were set at 0 µM, 10 µM, 30 µM, 100 µM, and 300 µM.
As in (2-3) of Example 2, HEK293T cells expressing the olfactory receptor OR2AG2 gene were used to determine the effect of test substances in suppressing OR2AG2 response to an odor solution sample with unknown components containing "dust odor" by antagonist screening using a luciferase reporter gene assay. […] As an example of antagonist, the effect of trans-2-nonenal in suppressing OR2AG2 response to the "dust odor" solution with unknown components was measured by a luciferase reporter gene assay. The final concentration of the sample was 0.1 mass%, and the concentrations of trans-2-nonenal relative to the sample were 0 µM, 1 µM, 2 µM, and 4 µM.
(In general: In a reporter assay the amount or activity of a reporter protein is the signal.)

The test system of assay [2] is olfactory receptor OR2AG2. Briefly: Luciferase reporter gene assay of olfactory receptor response (Fold Increase) in HEK293T cells expressing OR2AG2. Format: cell-based, human. The following applies: for OR2AG2 response (Fold Increase value): screening of 1,367 odorant substances, 1 µM to 1 mM, Figure 2. The protocol:
0.05 µg of the human olfactory receptor gene expression vector, 0.01 µg of RTP1S vector, 0.01 µg of the firefly luciferase vector pGL4.29 (Promega) containing a cAMP response element promoter, and 0.005 µg of the Renilla luciferase vector pGL4.74 (Promega) containing a thymidine kinase promoter were dissolved in 10 µL of Opti-MEM I (gibco) to prepare a gene solution (for one well). HEK293T cells were seeded at 100 µL per well in a 96-well plate (Biocoat, Corning) at a cell number that would reach confluence after 24 hours. The gene solution was added to each well using lipofection in accordance with the instructions for Lipofectamine 3000 to introduce the gene into the cells, which were then cultured at 37°C in a 5% carbon dioxide atmosphere for 24 hours.
After removing the culture medium, 60 µL of an odorant compound sample prepared in CD293 medium (gibco) (supplemented with 20 µM L-glutamine), at the concentration required for measurement, was added to each well. After stimulation for 3 hours, luciferase activity was measured in accordance with the instructions for the Dual-Luciferase Reporter Assay System (Promega). The response intensity of the olfactory receptor was determined using, as an index, a Fold Increase value obtained by dividing the luciferase activity generated by stimulation with the odorant compound by the luciferase activity generated in a test system free of the odorant compound.
For odorant substances whose response values in the luciferase reporter gene assay were equal to or greater than a predetermined threshold, the primary note from the odor-note information was extracted, and the proportion of each odor note was determined.
To extract the "dust odor" generated when aspartame is combined with certain fruit flavors, as described in Patent Literature 1, which is well-known as a "dust odor" of unknown causative substance, aspartame, trans-2-hexenal, and hexanal were mixed at a 1:1:1 (mass ratio) and gently heated at 60°C for one week, after which the reaction product was extracted with hexane. The present extract was fractionated by medium-pressure HPLC with a silica gel column using hexane and ethyl acetate, then fractionated by medium-pressure HPLC with an ODS column using water and acetonitrile, and further fractionated by high-pressure HPLC with an ODS column using water and acetonitrile, to obtain an odor solution containing "dust odor." This "dust odor" solution with unknown components was added to HEK293T cells expressing the olfactory receptor OR2AG2 gene at final concentrations of 0.05 mass%, 0.1 mass%, and 0.2 mass%, and a luciferase reporter gene assay was performed.

The next assay deals with OR11A1. The following applies: Patent Literature 2; cited from earlier work.
Assay [3] has as its system olfactory receptor OR2AG1. The following applies: Non Patent Literature 6; cited from earlier work.

“Also recorded” adds a separate entry of the source.

`CC1(O)CC2CCC1(C)C2(C)C` (stereo not drawn) [2-methylisoborneol]: in the assay on OR2M3, the “response of olfactory receptor OR2M3” value is on record as “specifically respond”. As to `CCCCCC=CC=CC=O` [2,4-decadienal], the “Normalized Response” value is recorded as “less than 1” in assay [1] (against 2-sec-butyl-3-methoxypyrazine 500 µM, test substance 1 µM to 1 mM) and “less than 1” in assay [1] (against 3-ethyl-2-pentylpyridine 300 µM, test substance 1 µM to 1 mM). Turning to `CCCCCc1ncccc1CC` [3-ethyl-2-pentylpyridine], the “OR2AG2 response (Fold Increase value)” value in assay [2] was “trigger OR2AG2 response”. As for `CCCCCC/C=C/C=O` [trans-2-nonenal], the “Normalized Response” value was “below 1” in assay [1] (against 0.1 mass% odor solution with unknown components containing "dust odor") and “less than 1” in assay [1] (against 2-methoxy-3-isopropylpyrazine 500 µM, test substance 1 µM to 1 mM). Take `CC1CCCC2(C)CCCCC12O` (stereo not drawn) [geosmin]: the “response of olfactory receptor OR11A1” value with OR11A1 is listed as “specifically respond”. For `CCC(C)c1nccnc1OC` (stereo not drawn) [2-sec-butyl-3-methoxypyrazine], the “OR2AG2 response (Fold Increase value)” value in assay [2] was “trigger OR2AG2 response”. For the same molecule, in assay [3], the “response of olfactory receptor OR2AG1” value is given as “responds”. Turning to `CCCCCCC=CC=CC=O` [2,4-undecadienal], in assay [1] (against 2-isobutyl-3-methoxypyrazine 500 µM, test substance 1 µM to 1 mM), the “Normalized Response” value is given as “less than 1”.

For `COc1nccnc1C(C)C` [2-methoxy-3-isopropylpyrazine], the “OR2AG2 response (Fold Increase value)” value in assay [2] is reported as “trigger OR2AG2 response”. Further, the “response of olfactory receptor OR2AG1” value in assay [3] was “responds”.

Consider `COc1nccnc1CC(C)C` [2-isobutyl-3-methoxypyrazine], for which, in assay [2] (1 mM odorant, screening of 396 human olfactory receptors, Figure 1), the “response of olfactory receptor OR2AG2 (Fold Increase value)” value was “extremely strong response; also recorded: strong and specific response”. Moreover, in assay [2], the “OR2AG2 response (Fold Increase value)” value is “trigger OR2AG2 response”. The “response of olfactory receptor OR2AG1” value in assay [3] was “responds”.
